Source: patent US10329295B2, “Pyrrolotriazine inhibitors of IRAK4 activity” (MERCK SHARP & DOHME CORP., priority 2015, dated 2019)
Structures can show the parent of a compound that is named as a salt.

molecular target: GST tagged IRAK4 (Homo sapiens (Human), UniProt Q9NWZ3); assay: IRAK4 Kinase Assay (IMAP fluorescence polarization); format: biochemical; conditions: 0.5 nM GST tagged IRAK4, 100 μM ATP, 30 minutes at 25° C.
How it was run: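 Reactions contained 0.5 nM GST-IRAK4, 100 nM fluorescent peptide substrate and 100 μM ATP in 10 mM Tris-HCl pH 7.2 with 1 mM MgCl2, and were started with ATP. After 30 minutes at 25° C they were stopped with IMAP reagent. Substrate phosphorylation was read as the change in fluorescence polarization.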

Chain of GST tagged IRAK4 (Q9NWZ3 whole entry): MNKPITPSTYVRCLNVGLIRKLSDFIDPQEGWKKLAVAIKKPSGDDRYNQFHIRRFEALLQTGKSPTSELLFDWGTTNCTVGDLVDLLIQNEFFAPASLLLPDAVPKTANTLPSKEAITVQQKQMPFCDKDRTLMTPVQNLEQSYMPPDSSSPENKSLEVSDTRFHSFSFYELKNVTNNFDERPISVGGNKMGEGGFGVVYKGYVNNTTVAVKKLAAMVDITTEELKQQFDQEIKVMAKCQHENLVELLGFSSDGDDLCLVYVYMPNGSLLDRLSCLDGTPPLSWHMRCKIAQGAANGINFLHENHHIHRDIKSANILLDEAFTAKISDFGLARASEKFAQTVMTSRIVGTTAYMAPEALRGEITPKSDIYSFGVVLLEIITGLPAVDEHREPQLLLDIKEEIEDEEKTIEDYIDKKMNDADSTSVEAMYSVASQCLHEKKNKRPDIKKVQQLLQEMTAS

SMILES | IC50
Cn1cc(NC(=O)c2ccc3cnc(N4C[C@@H](N)C[C@H](F)C4)nn23)c(C(F)(F)F)n1 [Example 150, 2-[(3S,5S)-3-amino-5-fluoropiperidin-1-yl]-N-[1-methyl-3-(trifluoromethyl)-1H-pyrazol-4-yl]pyrrolo[2,1-f][1,2,4]triazine-7-carboxamide trifluoroacetate] | 10 nM
Cn1cc(NC(=O)c2ccc3cnc(N4C[C@@H](N)C[C@@H](F)C4)nn23)c(C(F)F)n1 [Example 151, 2-[(3S,5R)-3-amino-5-fluoropiperidin-1-yl]-N-[3-(difluoromethyl)-1-methyl-1H-pyrazol-4-yl]pyrrolo[2,1-f][1,2,4]triazine-7-carboxamide formate] | 0.8 nM
N#Cc1sccc1NC(=O)c1ccc2cnc(N3CCC[C@H](N)C3)nn12 [Example 152, 2-[(3S)-3-aminopiperidin-1-yl]-N-(2-cyanothiophen-3-yl)pyrrolo[2,1-f][1,2,4]triazine-7-carboxamide trifluoroacetate] | 7 nM
Cn1cc(NC(=O)c2ccc3cnc(N[C@@H]4CNC[C@H](F)C4)nn23)c(C(F)(F)F)n1 [Example 154, 2-{[(3S,5R)-5-fluoropiperidin-3-yl]amino}-N-[1-methyl-3-(trifluoromethyl)-1H-pyrazol-4-yl]pyrrolo[2,1-f][1,2,4]triazine-7-carboxamide] | 53 nM
Cn1cc(NC(=O)c2ccc3cnc(N4C[C@H](N)C[C@@H](F)C4)nn23)c(C(F)F)n1 [Example 156, 2-[(3R,5R)-3-amino-5-fluoropiperidin-1-yl]-N-[3-(difluoromethyl)-1-methyl-1H-pyrazol-4-yl]pyrrolo[2,1-f][1,2,4]triazine-7-carboxamide trifluoroacetate] | 0.5 nM
Cn1cc(NC(=O)c2ccc3cnc(N4C[C@@H](N)C[C@H](F)C4)nn23)c(C(F)F)n1 [Example 157, 2-[(3S,5S)-3-amino-5-fluoropiperidin-1-yl]-N-[3-(difluoromethyl)-1-methyl-1H-pyrazol-4-yl]pyrrolo[2,1-f][1,2,4]triazine-7-carboxamide trifluoroacetate] | 0.8 nM
Cn1cc(NC(=O)c2ccc3cnc(N[C@H]4CNC[C@@H](F)C4)nn23)c(C(F)(F)F)n1 [Example 160, 2-{[(3R,5S)-5-fluoropiperidin-3-yl]amino}-N-[1-methyl-3-(trifluoromethyl)-1H-pyrazol-4-yl]pyrrolo[2,1-f][1,2,4]triazine-7-carboxamide] | 9 nM
Cn1cc(NC(=O)c2ccc3cnc(N[C@@H]4CNC[C@@H](F)C4)nn23)c(C(F)(F)F)n1 [Example 161, 2-{[(3S,5S)-5-fluoropiperidin-3-yl]amino}-N-[1-methyl-3-(trifluoromethyl)-1H-pyrazol-4-yl]pyrrolo[2,1-f][1,2,4]triazine-7-carboxamide trifluoroacetate] | 4 nM
Cn1cc(NC(=O)c2ccc3cnc(N[C@H]4CNC[C@H](F)C4)nn23)c(C(F)(F)F)n1 [Example 162, 2-{[(3R,5R)-5-fluoropiperidin-3-yl]amino}-N-[1-methyl-3-(trifluoromethyl)-1H-pyrazol-4-yl]pyrrolo[2,1-f][1,2,4]triazine-7-carboxamide trifluoroacetate] | 18 nM
Cn1cc(NC(=O)c2ccc3cnc(N4C[C@H](N)C[C@H](F)C4)nn23)c(C(F)F)n1 [Example 163, 2-[(3R,5S)-3-amino-5-fluoropiperidin-1-yl]-N-[3-(difluoromethyl)-1-methyl-1H-pyrazol-4-yl]pyrrolo[2,1-f][1,2,4]triazine-7-carboxamide trifluoroacetate] | 0.7 nM

Other lines, results leading:

IC50 | SMILES
120 nM | N#Cc1cscc1NC(=O)c1ccc2cnc(N[C@@H]3CCCC(F)(F)[C@@H]3N)nn12 [Example 153, 2-{[(1R,2R)-2-amino-3,3-difluorocyclohexyl]amino}-N-(4-cyanothiophen-3-yl)pyrrolo[2,1-f][1,2,4]triazine-7-carboxamide trifluoroacetate]
7 nM | Cn1cc(NC(=O)c2ccc3cnc(N[C@@H]4CNC[C@H](F)C4)nn23)c(C(F)F)n1 [Example 155, N-[3-(difluoromethyl)-1-methyl-1H-pyrazol-4-yl]-2-{[(3S,5R)-5-fluoropiperidin-3-yl]amino}pyrrolo[2,1-f][1,2,4]triazine-7-carboxamide]
1040 nM | N#Cc1sccc1NC(=O)c1ccc2cnc(N[C@@H]3CCCC(F)(F)[C@@H]3N)nn12 [Example 158, 2-{[(1R,2R)-2-amino-3,3-difluorocyclohexyl]amino}-N-(2-cyanothiophen-3-yl)pyrrolo[2,1-f][1,2,4]triazine-7-carboxamide formate]
0.5 nM | Cn1cc(NC(=O)c2ccc3cnc(N[C@H]4CNC[C@@H](F)C4)nn23)c(C(F)F)n1 [Example 159, N-[3-(difluoromethyl)-1-methyl-1H-pyrazol-4-yl]-2-{[(3R,5S)-5-fluoropiperidin-3-yl]amino}pyrrolo[2,1-f][1,2,4]triazine-7-carboxamide]
0.5 nM | Cn1cc(NC(=O)c2ccc3cnc(N[C@@H]4CNC[C@@H](F)C4)nn23)c(C(F)F)n1 [Example 164, N-[3-(difluoromethyl)-1-methyl-1H-pyrazol-4-yl]-2-{[(3S,5S)-5-fluoropiperidin-3-yl]amino}pyrrolo[2,1-f][1,2,4]triazine-7-carboxamide]
1 nM | Cn1cc(NC(=O)c2ccc3cnc(N[C@H]4CNC[C@H](F)C4)nn23)c(C(F)F)n1 [Example 165, N-[3-(difluoromethyl)-1-methyl-1H-pyrazol-4-yl]-2-{[(3R,5R)-5-fluoropiperidin-3-yl]amino}pyrrolo[2,1-f][1,2,4]triazine-7-carboxamide trifluoroacetate]
38 nM | CCn1cc(NC(=O)c2ccc3cnc(N[C@@H]4CCCC[C@@H]4N)nn23)cn1 [Example 166, 2-{[(1R,2S)-2-Aminocyclohexyl]amino}-N-(1-ethyl-1H-pyrazol-4-yl)pyrrolo[2,1-f][1,2,4]triazine-7-carboxamide]
178 nM | N[C@H]1CCCC[C@H]1Nc1ncc2ccc(C(=O)Nc3cnn(CCO)c3)n2n1 [Example 167, 2-{[(1R,2S)-2-aminocyclohexyl]amino}-N-[1-(2-hydroxyethyl)-1H-pyrazol-4-yl]pyrrolo[2,1-f][1,2,4]triazine-7-carboxamide trifluoroacetate]
301 nM | COCCn1cc(NC(=O)c2ccc3cnc(N[C@@H]4CCCC[C@@H]4N)nn23)cn1 [Example 168, 2-{[(1R,2S)-2-aminocyclohexyl]amino}-N-[1-(2-methoxyethyl)-1H-pyrazol-4-yl]pyrrolo[2,1-f][1,2,4]triazine-7-carboxamide trifluoroacetate]
35 nM | Cn1cc(NC(=O)c2ccc3cnc(N[C@@H]4CCCC[C@@H]4N)nn23)cn1 [Example 169, 2-{[(1R,2S)-2-aminocyclohexyl]amino}-N-(1-methyl-1H-pyrazol-4-yl)pyrrolo[2,1-f][1,2,4]triazine-7-carboxamide trifluoroacetate]
